Results published in patent US20220325242A1, “IDH2 INHIBITION FOR PRODUCING T-CELLS AND B-CELLS WITH A MEMORY PHENOTYPE” (Universite de Lausanne, priority 2019, published 2022).

Legend:
OT1 CD8+ T cells = assay: Extracellular flux analyses (XF-96 Seahorse) of OT1 CD8+ T cells; format: cell-based, mouse; conditions: day 7, compared to DMSO
Method: Example 2. In vitro culture of splenocytes comprising CD8+ T-cells. OT1 splenocytes (as described in Example 1) were cultured for 3 days at a concentration of 10^6 cells per mL in RPMI medium (Gibco 61870-01) supplemented with 10% FCS, (Gibco 10270-106), 1% Penicillin/Streptomycin (P/S; Gibco 15070-063), 0.1% 13-mercaptoethanol, 1% HEPES (Gibco 15630-080), 1× Non-essential amino acids (Gibco 11140-035), 1% L-glutamine (Gibco 25030-081), 1 mM Sodium Pyruvate (Gibco 11360-039), 100 U/m1 hIL-2 (Glaxo-IMB) and 1 μg/ml ovalbumin N4 peptide (SIINFEKL). To evaluate the effects of IDH2 inhibition on T-cell differentiation, 5 μM of a small molecule IDH2 inhibitor (AG221 or AGI6780) or a DMSO solvent control was added during this 3-day culture period. At day 3, a fraction of the splenocytes was collected and the remaining cells were cultured for 4 additional days with 100 U/ml hIL-2 and 10 ng/ml hIL-7 (Peprotech 200-07) supplementation after washing out the inhibitors and the ovalbumine N4 peptide (FIG. 1). At day 3 and day 7, the activation and differentiation state of CD8+ T-cells was determined by gene expression analysis, flow cytometry and extracellular metabolic flux analyses (see Example 3).
Real-time analysis of CD8^+ T cell oxygen consumption rate (OCR) was measured with an XF-96 Extracellular Flux Analyzer (Seahorse Bioscience) at day 7 of in vitro culture (FIG. 7). Measurements were performed while successively adding different drugs to the culture without any washing steps in between. Specifically, the measurements were performed under basal conditions, after addition of 1.25 μM oligomycin, a complex V inhibitor that blocks mitochondrial ATP synthase, after addition of 1 μM protonophore FCCP (fluoro-carbonyl cyanide phenylhydrazone) to uncouple ATP synthesis from oxygen consumption by the electron transport chain, after addition of 50 μM etomoxir to inhibit CPT1alpha, and thus fatty acid oxidation, and after addition of 100 nM rotenone and 1 μM antimycin A to inhibit the electron transport chain.
The basal OCR is the OCR measured in the absence of drugs. Addition of oligomycin allows to calculate the ATP-linked respiration by subtracting the oligomycin OCR from basal OCR. FCCP enables the electron transport chain (ETC) to reach its maximal rate, allowing to determine the cellular maximal respiratory capacity. Finally, rotenone and antimycin A inhibit the ETC which indicates the non-mitochondrial respiration. The spare respiratory capacity (SRC) is defined as the difference between basal OCR and maximal OCR obtained after FCCP addition.
In addition, the extracellular acidification rate (ECAR), which is an indicator for […], was measured using the same device under basal conditions. This allowed further calculating the OCR/ECAR ratio as indicator of basal mitochondrial activity.

[1] = system: human CD8+ T-cells from umbilical cord blood; assay: CD62L flow cytometry of human cord blood mononuclear cells (CBMC); format: cell-based
Method: Methods: Mononuclear Cells were isolated from fresh umbilical cord blood on a Percoll Gradient (CBMCs). 10^4 CBMC's were seeded per well in a round bottom 96-well plate in RPMI with 10% human serum, and activated with (magnetic) αCD3/CD28 at a 1:2 cell:bead ratio and 300 U/ml rhIL-2, in the presence of 5 μM AG221 or DMSO, or 1 μM MK2206 (AKT inhibitor). After 11 days of culture, CD62L expression was analyzed by flow cytometry on a fraction of the cells (FIG. 15A). The other cells were washed 2 times and placed in a magnet to remove the inhibitors and the αCD3/CD28 beads. The cells were then rested for 4 hours before restimulating them for 4 hours with 1 ng/ml Phorbol 12-Myristate 13-Acetate (PMA, a PKC activator) and 50 μg/ml Ionomycin (a Ca^2+ ionophore, activating NF-KB and NFAT) in the presence of 50 μ/ml golgi inhibitor (Brefeldin A, BFA), allowing for the measurement of intracellular accumulation of different cytokines by flow cytometry.

CC(C)(O)CNc1nc(Nc2ccnc(C(F)(F)F)c2)nc(-c2cccc(C(F)(F)F)n2)n1 [AG221, 2-methyl-1-[[4-[6-(trifluoromethyl)pyridin-2-yl]-6-[[2-(trifluoromethyl)pyridin-4-yl]amino]-1,3,5-triazin-2-yl]amino]propan-2-ol]
OCR/ECAR ratio (OT1 CD8+ T cells): unchanged
basal oxygen consumption rate (OCR) (OT1 CD8+ T cells): significantly increased
extracellular acidification rates (ECAR) (OT1 CD8+ T cells): unchanged
maximal respiratory capacity (OT1 CD8+ T cells): significantly increased
spare respiratory capacity (SRC) (OT1 CD8+ T cells): significantly increased
CD62L expression in human CD8+ T-cells ([1]; day 11, 5 μM, versus DMSO): strong upregulation
CD8+ cells expressing CD62L ([1]; day 11, AG221 5 μM, MK2206 1 μM, DMSO control about 35%): about 75%
